Source: DBAASP
≈ marks a conversion by molar mass, not a printed value.

How the values were obtained:
Assay in all cases: ≥ marks a high value that may be exact or a test limit, other limits are often not marked, values filed in µg/mL are converted to µM
[1] = system: Staphylococcus aureus ATCC 6538
[2] = system: Pseudomonas aeruginosa ATCC 9027
Bacillus subtilis = system: Bacillus subtilis
Salmonella typhimurium = system: Salmonella typhimurium
Escherichia coli = system: Escherichia coli
Staphylococcus aureus = system: Staphylococcus aureus
Bacillus cereus = system: Bacillus cereus
[3] = system: Escherichia coli DH5alpha
[4] = system: Staphylococcus aureus NCTC 10788
[5] = system: Bacillus subtilis ATCC 6051

MIC (Escherichia coli) [µM]	MIC (Staphylococcus aureus) [µM]	MIC (Bacillus cereus) [µM]	SMILES	also measured
			CC(C)C[C@H](NC(=O)[C@H](CC(C)C)NC(=O)[C@H](CCCCN)NC(=O)[C@H](CCCCN)NC(=O)[C@H](C)NC(=O)[C@H](CC(C)C)NC(=O)[C@H](CCCCN)NC(=O)[C@H](C)NC(=O)[C@H](CC(C)C)NC(=O)[C@H](C)NC(=O)[C@H](CCCCN)NC(=O)[C@H](C)NC(=O)[C@@H](N)Cc1ccccc1)C(N)=O [FAKALAKLAKKLL]	MIC [1]: 3.53 µM (≈ 5 µg/mL); MIC [2]: 3.53 µM (≈ 5 µg/mL)
8 (≈ 14.2 µg/mL)	8 (≈ 14.2 µg/mL)		CC[C@H](C)[C@H](NC(=O)[C@H](CCCN=C(N)N)NC(=O)[C@@H](NC(=O)[C@@H](NC(=O)[C@@H](NC(=O)CN)C(C)C)C(C)C)C(C)C)C(=O)NCC(=O)N[C@@H](CCCN=C(N)N)C(=O)N[C@H](C(=O)N[C@H](C(=O)N[C@H](C(=O)N[C@@H](CCCN=C(N)N)C(=O)NCC(=O)N[C@H](C(=O)N[C@@H](CCCN=C(N)N)C(=O)N[C@@H](CCCN=C(N)N)C(N)=O)C(C)C)C(C)C)C(C)C)C(C)C [GVVVRIGRVVVRGVRR]	MIC (Bacillus subtilis): 8 µM (≈ 14.2 µg/mL); MIC (Salmonella typhimurium): 4 µM (≈ 7.1 µg/mL)
> 122		≥ 122	CC[C@H](C)[C@H](NC(=O)[C@H](CCCCN)NC(=O)[C@@H](NC(=O)[C@@H](NC(=O)[C@@H](NC(=O)[C@H](CCC(N)=O)NC(=O)[C@H](C)NC(=O)CNC(=O)[C@H](CO)NC(=O)[C@H](CCCCN)NC(=O)[C@H](CCC(N)=O)NC(=O)[C@H](C)NC(=O)[C@H](CCCCN)NC(=O)[C@H](CCCCN)NC(=O)[C@H](C)N)[C@@H](C)O)[C@@H](C)CC)C(C)C)C(=O)N[C@@H](Cc1ccccc1)C(=O)N[C@@H](C)C(=O)N[C@@H](CCCCN)C(=O)NCC(=O)N[C@@H](CCSC)C(=O)O [AKKAQKSGAQTIVKIFAKGM]	
> 129		≥ 129	CC[C@H](C)[C@H](NC(=O)[C@@H](NC(=O)[C@H](CO)NC(=O)[C@H](CCCCN)NC(=O)[C@H](C)NC(=O)[C@@H](NC(=O)[C@H](CCCCN)NC(=O)[C@@H](NC(=O)[C@@H](N)CO)C(C)C)C(C)C)C(C)C)C(=O)N1CCC[C@H]1C(=O)N[C@@H](CO)C(=O)N[C@@H](C)C(=O)N[C@H](C(=O)N[C@@H](Cc1ccccc1)C(=O)N[C@@H](C)C(=O)NCC(=O)NCC(=O)N[C@@H](CCCCN)C(=O)N[C@H](C(=O)N[C@@H](Cc1ccccc1)C(=O)O)C(C)C)C(C)C [SVKVAKSVIPSAVFAGGKVF]	
> 131		≥ 131	CC[C@H](C)[C@H](NC(=O)[C@H](CC(C)C)NC(=O)[C@H](CO)NC(=O)[C@@H]1CCCN1C(=O)[C@@H](NC(=O)[C@@H](NC(=O)[C@H](CCCCN)NC(=O)[C@H](CO)NC(=O)[C@H](C)NC(=O)[C@@H](NC(=O)[C@H](CO)NC(=O)CNC(=O)[C@@H](NC(=O)[C@H](C)NC(=O)[C@@H](N)CO)C(C)C)C(C)C)C(C)C)C(C)C)C(=O)N[C@@H](CO)C(=O)N[C@@H](CCCCN)C(=O)N[C@H](C(=O)N[C@H](C(=O)N[C@@H](CCCCN)C(=O)O)[C@@H](C)O)C(C)C [SAVGSVASKVVPSLISKVTK]	
	4.3 (≈ 12.1 µg/mL)		CC[C@H](C)[C@H](NC(=O)CN)C(=O)NCC(=O)N[C@@H](C)C(=O)N[C@H](C(=O)N[C@@H](CC(C)C)C(=O)N[C@@H](CCCCN)C(=O)N[C@H](C(=O)N[C@@H](CC(C)C)C(=O)N[C@H](C(=O)N[C@H](C(=O)NCC(=O)N[C@@H](C)C(=O)N1CCC[C@H]1C(=O)N[C@@H](C)C(=O)N[C@@H](CC(C)C)C(=O)N[C@H](C(=O)N[C@@H](CO)C(=O)N[C@@H](Cc1c[nH]c2ccccc12)C(=O)N[C@H](C(=O)N[C@@H](CCCCN)C(=O)N[C@@H](CCCN=C(N)N)C(=O)N[C@@H](CCCCN)C(=O)N[C@@H](CCCN=C(N)N)C(=O)N[C@@H](CCC(N)=O)C(=O)N[C@@H](CCC(N)=O)C(N)=O)[C@@H](C)CC)[C@@H](C)CC)[C@@H](C)O)[C@@H](C)O)C(C)C)C(C)C [GIGAVLKVLTTGAPALISWIKRKRQQ]	MIC (Bacillus subtilis): 2.4 µM (≈ 6.73 µg/mL); MIC [3]: 4.5 µM (≈ 12.6 µg/mL)
> 121	> 121	≥ 121	CC(C)C[C@H](NC(=O)[C@@H](N)Cc1ccccc1)C(=O)NCC(=O)N[C@@H](CO)C(=O)N[C@H](C(=O)N[C@@H](Cc1ccccc1)C(=O)N[C@@H](CCCCN)C(=O)N[C@@H](CO)C(=O)N[C@@H](C)C(=O)N[C@@H](CO)C(=O)N[C@@H](CCCCN)C(=O)N[C@H](C(=O)N[C@@H](Cc1ccccc1)C(=O)N1CCC[C@H]1C(=O)N[C@@H](C)C(=O)N[C@H](C(=O)N[C@@H](Cc1ccccc1)C(=O)NCC(=O)N[C@@H](CCCCN)C(=O)N[C@H](C(=O)O)C(C)C)C(C)C)C(C)C)C(C)C [FLGSVFKSASKVFPAVFGKV]	
			CC(C)C[C@H](NC(=O)[C@H](CC(C)C)NC(=O)CNC(=O)CNC(=O)[C@H](CC(C)C)NC(=O)[C@@H](NC(=O)[C@H](CC(N)=O)NC(=O)[C@H](CO)NC(=O)[C@@H](NC(=O)[C@H](CC(C)C)NC(=O)CNC(=O)[C@H](CC(C)C)NC(=O)[C@@H](NC(=O)[C@@H]1CCCN1C(=O)CNC(=O)[C@H](CC(C)C)NC(=O)[C@@H](N)CC(C)C)C(C)C)C(C)C)C(C)C)C(N)=O [LLGPVLGLVSNVLGGLL]	MIC [4]: ≥ 157 µM
			CC[C@H](C)[C@H](NC(=O)[C@H](CC(N)=O)NC(=O)[C@H](CC(N)=O)NC(=O)CNC(=O)[C@H](CCC(=O)O)NC(=O)[C@H](CC(N)=O)NC(=O)[C@H](CCC(=O)O)NC(=O)[C@H](CCC(N)=O)NC(=O)[C@H](CCC(=O)O)NC(=O)[C@H](CCC(=O)O)NC(=O)[C@@H](N)CCCCN)C(=O)N[C@@H](Cc1ccccc1)C(=O)N[C@H](C(=O)N[C@@H](CC(N)=O)C(=O)N[C@@H](CCCN=C(N)N)C(=O)N[C@@H](Cc1cnc[nH]1)C(=O)N[C@H](C(=O)N[C@H](C(=O)N[C@@H](CC(=O)O)C(=O)N[C@@H](CCCCN)C(=O)N[C@@H](CC(C)C)C(=O)O)C(C)C)[C@@H](C)CC)C(C)C [KEEQENEGNNIFVNRHIVDKL]	MIC [5]: ≥ 1000 µM
28.8 (≈ 64 µg/mL)	1.8 (≈ 4 µg/mL)	7.19 (≈ 16 µg/mL)	CC(C)C[C@H](NC(=O)[C@H](CCCCN)NC(=O)[C@H](Cc1ccccc1)NC(=O)[C@@H](NC(=O)[C@@H](NC(=O)CNC(=O)[C@H](CC(C)C)NC(=O)[C@@H](N)Cc1ccccc1)C(C)C)C(C)C)C(=O)N[C@@H](C)C(=O)N[C@@H](CO)C(=O)N[C@@H](CCCCN)C(=O)N[C@H](C(=O)N[C@@H](Cc1ccccc1)C(=O)N1CCC[C@H]1C(=O)N[C@@H](C)C(=O)N[C@H](C(=O)N[C@@H](Cc1ccccc1)C(=O)N[C@@H](CCCCN)C(=O)N[C@@H](CCCCN)C(=O)N[C@H](C(=O)O)C(C)C)C(C)C)C(C)C [FLGVVFKLASKVFPAVFKKV]	
59.5 (≈ 128 µg/mL)	> 59.5	≥ 59.5	CC(C)C[C@H](NC(=O)[C@@H](N)Cc1ccccc1)C(=O)NCC(=O)N[C@@H](CCCCN)C(=O)N[C@H](C(=O)N[C@H](C(=O)N[C@@H](CCCCN)C(=O)N[C@@H](CCCCN)C(=O)N[C@@H](C)C(=O)N[C@@H](CO)C(=O)N[C@@H](CCCCN)C(=O)N[C@H](C(=O)N[C@@H](Cc1ccccc1)C(=O)N1CCC[C@H]1C(=O)N[C@@H](C)C(=O)N[C@H](C(=O)N[C@@H](Cc1ccccc1)C(=O)NCC(=O)N[C@@H](CCCCN)C(=O)N[C@H](C(=O)O)C(C)C)C(C)C)C(C)C)C(C)C)C(C)C [FLGKVVKKASKVFPAVFGKV]	
			CC(C)C[C@H](NC(=O)[C@H](CC(C)C)NC(=O)[C@H](CCCCN)NC(=O)[C@H](CCCCN)NC(=O)[C@H](C)NC(=O)[C@H](C)NC(=O)[C@H](CC(C)C)NC(=O)[C@H](CCCCN)NC(=O)[C@H](CC(C)C)NC(=O)[C@H](CC(C)C)NC(=O)[C@H](CCCCN)NC(=O)[C@H](C)NC(=O)[C@@H](N)Cc1ccccc1)C(N)=O [FAKLLKLAAKKLL]	MIC [1]: 137 µM (≈ 200 µg/mL); MIC [2]: 3.43 µM (≈ 5 µg/mL)
